Measured values from ChEMBL document CHEMBL1201862, “PubChem BioAssay data set” (2004).
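Briefly, cells in 96-well plates were exposed to five compound concentrations for 48 h, and endpoints were estimated by linear interpolation. GI50 = concentration required for 50% inhibition of growth.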 Active and inactive are the calls of the source. No stated cut-off is given here; in the data, active = GI50 up to about 1.1 µM and inactive = higher.

Legend:
Assay in all cases: NCI-60 cell line screen, 48 h
786-0 = tested on: 786-0
A498 = tested on: A498
DU-145 = tested on: DU-145
EKVX = tested on: EKVX
HOP-62 = tested on: HOP-62
HOP-92 = tested on: HOP-92
K562 = tested on: K562
MDA-N = tested on: MDA-N
MOLT-4 = tested on: MOLT-4
NCI-H23 = tested on: NCI-H23
OVCAR-3 = tested on: OVCAR-3
OVCAR-4 = tested on: OVCAR-4
OVCAR-8 = tested on: OVCAR-8
PC-3 = tested on: PC-3
SF-268 = tested on: SF-268
SF-295 = tested on: SF-295
SK-MEL-2 = tested on: SK-MEL-2
SK-OV-3 = tested on: SK-OV-3
SN12C = tested on: SN12C
SR = tested on: SR

Row | SMILES | GI50 (786-0) | GI50 (A498) | GI50 (DU-145) | GI50 (EKVX) | GI50 (HOP-62) | GI50 (HOP-92) | GI50 (K562) | GI50 (MDA-N) | GI50 (MOLT-4) | GI50 (NCI-H23) | GI50 (OVCAR-3) | GI50 (OVCAR-4) | GI50 (OVCAR-8) | GI50 (PC-3) | GI50 (SF-268) | GI50 (SF-295) | GI50 (SK-MEL-2) | GI50 (SK-OV-3) | GI50 (SN12C) | GI50 (SR)
1 | COC(=O)C1=C(C(=O)OC)C(C(=O)OC)C(C(=O)OC)C(C(=O)OC)(C(=O)OC)C(C(=O)OC)=C1C(=O)OC (stereo not given) | 9.14 µM (inactive) | 15.5 µM (inactive) | 18.2 µM (inactive) | 18.3 µM (inactive) | 32.3 µM (inactive) | 6.89 µM (inactive) | 3.4 µM (inactive) | 17.1 µM (inactive) | 2.59 µM (inactive) | 18.6 µM (inactive) | 15.1 µM (inactive) | 22.8 µM (inactive) | 11.8 µM (inactive) | 16.5 µM (inactive) | 19 µM (inactive) | 19.2 µM (inactive) | 17.9 µM (inactive) | 27 µM (inactive) | 14.3 µM (inactive) | 0.285 µM (active)
2 | CN(C)CCOc1ccc2[nH]c(C(=O)N3CC(CCl)c4c3cc(NC(=O)OCc3ccc([N+](=O)[O-])cc3)c3ccccc43)cc2c1 (stereo not given) | 0.979 µM (active) | 1.85 µM (inactive) | 0.552 µM (active) | 1.73 µM (inactive) | 1.47 µM (inactive) | 1.5 µM (inactive) | 0.237 µM (active) | 1.6 µM (inactive) | 0.538 µM (active) | 1.36 µM (inactive) | 1.63 µM (inactive) | 1.99 µM (inactive) | 0.483 µM (active) | 1.46 µM (inactive) | 1.37 µM (inactive) | 1.6 µM (inactive) | 2.14 µM (inactive) | 1.66 µM (inactive) | 1.5 µM (inactive) | 0.533 µM (active)
3 | O=C(c1cccs1)N(C(=O)N1CCN(c2ccccc2)CC1)S(=O)(=O)c1ccccc1 | 23.2 µM (inactive) | 62.2 µM (inactive) | 16.5 µM (inactive) | 16.7 µM (inactive) | 29.6 µM (inactive) | 22.9 µM (inactive) | 25.1 µM (inactive) | 19.3 µM (inactive) | 20.2 µM (inactive) | 24 µM (inactive) | 32.2 µM (inactive) | 34.7 µM (inactive) | 18.6 µM (inactive) | 29 µM (inactive) | 27.3 µM (inactive) | 28.1 µM (inactive) | 18.7 µM (inactive) | 46.6 µM (inactive) | 17.5 µM (inactive) | 21.8 µM (inactive)
4 | COc1ccc(C(=O)/C=C/c2ccc(OCC(=O)N3CCN(c4ccccc4)CC3)cc2)cc1 | 30.1 µM (inactive) | 55.1 µM (inactive) | > 100 µM (inactive) | > 70.5 µM (inactive) | 39.1 µM (inactive) | 14.2 µM (inactive) | > 60.5 µM (inactive) | > 100 µM (inactive) | > 26.7 µM (inactive) | 38.6 µM (inactive) | 74.3 µM (inactive) | 46.9 µM (inactive) | 71 µM (inactive) | 45.5 µM (inactive) | 54 µM (inactive) | 32.6 µM (inactive) | 45.4 µM (inactive) | 29.1 µM (inactive) | > 65.9 µM (inactive) | 18.6 µM (inactive)
5 | CON(C)C(=O)C1CCCO1 (stereo not given) | > 100 µM (inactive) | > 100 µM (inactive) | > 100 µM (inactive) | 39.5 µM (inactive) | > 100 µM (inactive) | > 100 µM (inactive) | > 100 µM (inactive) | > 100 µM (inactive) | > 100 µM (inactive) | 18.5 µM (inactive) | > 100 µM (inactive) | > 100 µM (inactive) | > 100 µM (inactive) | > 100 µM (inactive) | > 100 µM (inactive) | > 100 µM (inactive) | > 100 µM (inactive) | > 100 µM (inactive) | > 100 µM (inactive) | > 100 µM (inactive)
6 | O=C1Cc2cn[nH]c2-c2ccccc2N1 | 41.8 µM (inactive) | > 94.4 µM (inactive) | 40.7 µM (inactive) | 34.7 µM (inactive) | 32.1 µM (inactive) | 8.45 µM (inactive) | 21.9 µM (inactive) | 35.2 µM (inactive) | 20.1 µM (inactive) | 29.9 µM (inactive) | 16.1 µM (inactive) | 30.3 µM (inactive) | 35 µM (inactive) | 41.2 µM (inactive) | 41.1 µM (inactive) | 61 µM (inactive) | 26.9 µM (inactive) | > 85.7 µM (inactive) | > 44.4 µM (inactive) | 21.7 µM (inactive)
7 | Cn1ccnc1Sc1ccc(/C=N/NC(=O)c2ccccc2[N+](=O)[O-])cc1[N+](=O)[O-] | 68.9 µM (inactive) | 58.9 µM (inactive) | 66.7 µM (inactive) | 40.9 µM (inactive) | > 100 µM (inactive) | 18 µM (inactive) | 40.5 µM (inactive) | 89.1 µM (inactive) | 41.2 µM (inactive) | 58.6 µM (inactive) | 98.9 µM (inactive) | 57.8 µM (inactive) | > 100 µM (inactive) | 76 µM (inactive) | > 100 µM (inactive) | 83.8 µM (inactive) | 29 µM (inactive) | > 100 µM (inactive) | 60.3 µM (inactive) | 36.1 µM (inactive)
8 | O=C(O)C(O)c1ccc(F)cc1 (stereo not given) | > 100 µM (inactive) | > 100 µM (inactive) | > 100 µM (inactive) | > 100 µM (inactive) | > 100 µM (inactive) | > 100 µM (inactive) | > 100 µM (inactive) | > 100 µM (inactive) | > 100 µM (inactive) | > 100 µM (inactive) | > 100 µM (inactive) | > 100 µM (inactive) | > 100 µM (inactive) | > 100 µM (inactive) | > 100 µM (inactive) | > 100 µM (inactive) | > 100 µM (inactive) | > 100 µM (inactive) | > 100 µM (inactive) | > 100 µM (inactive)
9 | CC(=O)Nc1ccc2c3c(cc(O)c2c1)N(C(=O)CCCCC(=O)Nc1ccc2c4c(cc(O)c2c1)N(C(=O)OC(C)(C)C)CC4CCl)CC3CCl (stereo not given) | 2.76 µM (inactive) | 1.94 µM (inactive) | 0.826 µM (active) | 12.8 µM (inactive) | 3.05 µM (inactive) | 2.7 µM (inactive) | 2.62 µM (inactive) | 1.77 µM (inactive) | 0.302 µM (active) | 1.05 µM (active) | 2.26 µM (inactive) | 2.52 µM (inactive) | 3.08 µM (inactive) | 3.25 µM (inactive) | 0.804 µM (active) | 4.66 µM (inactive) | 1.75 µM (inactive) | 4.4 µM (inactive) | 2.38 µM (inactive) | 0.137 µM (active)
10 | C[C@H](CCC(=O)O)[C@H]1CC[C@H]2[C@@H]3[C@@H](O)C[C@@H]4C[C@H](O)CC[C@]4(C)[C@H]3CC[C@]12C | > 100 µM (inactive) | > 100 µM (inactive) | > 100 µM (inactive) | > 100 µM (inactive) | > 100 µM (inactive) | > 100 µM (inactive) | 69.8 µM (inactive) | > 100 µM (inactive) | 89.7 µM (inactive) | 65.2 µM (inactive) | 60.8 µM (inactive) | > 100 µM (inactive) | 73.8 µM (inactive) | 45.4 µM (inactive) | > 100 µM (inactive) | 53.6 µM (inactive) | > 100 µM (inactive) | > 100 µM (inactive) | > 100 µM (inactive) | 47.8 µM (inactive)
11 | C/C(=C\c1csc(C)n1)[C@@H]1C[C@@H]2O[C@]2(C)CCC[C@H](C)[C@H](O)[C@@H](C)C(=O)C(C)(C)[C@@H](O)CC(=O)O1 [PATUPILONE] | < 0.0001 µM (active) | < 0.0001 µM (active) | < 0.0001 µM (active) | < 0.0001 µM (active) | < 0.0001 µM (active) | < 0.0001 µM (active) | < 0.0001 µM (active) | < 0.0001 µM (active) | < 0.0001 µM (active) | < 0.0001 µM (active) | < 0.0001 µM (active) | 0.000458 µM (active) | < 0.0001 µM (active) | < 0.0001 µM (active) | < 0.0001 µM (active) | < 0.0001 µM (active) | < 0.0001 µM (active) | < 0.0001 µM (active) | < 0.0001 µM (active) | < 0.0001 µM (active)
